In US8710043B2, “TRPM8 antagonists and their use in treatments” (Amgen Inc., priority 2011, dated 2014):

Biological target: T1, human TRPM8 (Homo sapiens, UniProt Q7Z2W7)
T1 construct: expressed in transfected cells; host or cells: Chinese hamster ovary (CHO) cells, T-REx tetracycline-inducible system, co-transfected with aequorin
Assay: Luminescence readout assay for measuring intracellular calcium, icilin activation
Format: cell-based
Conditions: CHO cells expressing human TRPM8, aequorin luminescence, 1 μM icilin activation; read-out: hTRPM8 IC50
In short: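 The read-out was luminescence reporting intracellular calcium, recorded by a CCD-based luminometer. Compounds were preincubated for 2.5 min before agonist challenge with 1 μM icilin. Human TRPM8 was expressed in a stable T-REx CHO line, induced with 0.5 μg/mL tetracycline the day before.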

T1 sequence (Q7Z2W7 whole entry): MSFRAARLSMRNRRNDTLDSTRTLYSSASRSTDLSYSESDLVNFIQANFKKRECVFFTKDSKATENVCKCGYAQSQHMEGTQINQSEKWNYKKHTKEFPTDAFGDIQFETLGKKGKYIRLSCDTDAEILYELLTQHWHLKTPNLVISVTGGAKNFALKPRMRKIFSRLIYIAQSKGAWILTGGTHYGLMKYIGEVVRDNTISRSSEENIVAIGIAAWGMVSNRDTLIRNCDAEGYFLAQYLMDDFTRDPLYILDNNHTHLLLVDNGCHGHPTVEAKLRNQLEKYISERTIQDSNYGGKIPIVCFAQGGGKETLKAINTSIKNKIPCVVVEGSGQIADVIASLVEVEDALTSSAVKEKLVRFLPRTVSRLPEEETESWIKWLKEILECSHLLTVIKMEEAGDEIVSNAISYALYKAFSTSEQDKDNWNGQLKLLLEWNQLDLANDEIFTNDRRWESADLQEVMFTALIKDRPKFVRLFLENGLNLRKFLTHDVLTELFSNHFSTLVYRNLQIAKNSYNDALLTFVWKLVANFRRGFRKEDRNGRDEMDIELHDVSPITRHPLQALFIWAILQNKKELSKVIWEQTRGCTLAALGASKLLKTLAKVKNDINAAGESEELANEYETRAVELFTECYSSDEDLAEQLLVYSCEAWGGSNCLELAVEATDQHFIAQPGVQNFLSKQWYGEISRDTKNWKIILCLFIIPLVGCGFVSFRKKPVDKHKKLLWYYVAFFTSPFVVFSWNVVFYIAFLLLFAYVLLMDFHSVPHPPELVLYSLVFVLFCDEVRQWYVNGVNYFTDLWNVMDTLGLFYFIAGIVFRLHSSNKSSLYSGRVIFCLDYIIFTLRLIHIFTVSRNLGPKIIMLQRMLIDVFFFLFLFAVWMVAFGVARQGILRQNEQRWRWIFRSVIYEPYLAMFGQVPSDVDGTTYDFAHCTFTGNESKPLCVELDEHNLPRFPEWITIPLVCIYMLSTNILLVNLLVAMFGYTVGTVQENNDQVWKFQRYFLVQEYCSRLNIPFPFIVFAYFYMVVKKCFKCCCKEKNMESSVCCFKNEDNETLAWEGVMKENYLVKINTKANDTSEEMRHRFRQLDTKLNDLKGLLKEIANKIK

Row | SMILES | IC50
1 | CC(C)(O)Cn1cc(C(=O)N[C@@H](c2ccc(OC(F)(F)F)c(F)c2)c2ncccc2F)ccc1=O [Example 302, (S)-N-((3-fluoro-4-(trifluoromethoxy)phenyl)(3-fluoropyridin-2-yl)methyl)-1-(2-hydroxy-2-methylpropyl)-6-oxo-1,6-dihydropyridine-3-carboxamide] | 70.9 nM
2 | CC1(C)C[C@H]1c1cccnc1[C@@H](NC(=O)c1ccc2ncccc2c1)c1ccc(C(F)(F)F)cc1 [Example 233, N-((S)-(3-((R)-2,2-dimethylcyclopropyl)pyridin-2-yl)(4-(trifluoromethyl)phenyl)methyl)quinoline-6-carboxamide] | 83.1 nM
3 | Cc1cc(C(=O)N[C@@H](c2ccc(C(F)(F)F)cc2)c2ncccc2F)ccn1 [Example 53, (S)-N-((3-fluoropyridin-2-yl)(4-(trifluoromethyl)phenyl)methyl)-2-methylisonicotinamide] | 45.5 nM
4 | N#Cc1ccc(C(=O)N[C@@H](c2ccc(C(F)(F)F)cc2)c2ncccc2F)cc1 [Example 167, (S)-4-cyano-N-((3-fluoropyridin-2-yl)(4-(trifluoromethyl)phenyl)methyl)benzamide] | 21.5 nM
5 | O=C(N[C@@H](c1ccc(C(F)(F)F)cc1)c1ncccc1F)c1ccc(-c2nc(=O)o[nH]2)cc1 [Example 315, (S)-N-((3-fluoropyridin-2-yl)(4-(trifluoromethyl)phenyl)methyl)-4-(5-oxo-2,5-dihydro-1,2,4-oxadiazol-3-yl)benzamide] | 36.3 nM
6 | O=C1COc2cc(C(=O)N[C@@H](c3ccc(C(F)(F)F)cc3)c3ncccc3F)ccc2N1 [Example 73, (S)-N-((3-fluoropyridin-2-yl)(4-(trifluoromethyl)phenyl)methyl)-3-oxo-3,4-dihydro-2H-benzo[b][1,4]oxazine-7-carboxamide] | 17 nM
7 | O=C(N[C@@H](c1ccc(C(F)(F)F)cc1)c1ncccc1C(F)(F)F)c1ccc2c(O)ccnc2c1 [Example 106, (S)-4-hydroxy-N-((4-(trifluoromethyl)phenyl)(3-(trifluoromethyl)pyridin-2-yl)methyl)quinoline-7-carboxamide 2,2,2-trifluoroacetate] | 8.9 nM
8 | O=C(N[C@@H](c1ccc(C(F)(F)F)cc1)c1ncsc1Br)c1ccc2ncccc2c1 [Example 259, (S)-N-((5-bromothiazol-4-yl)(4-(trifluoromethyl)phenyl)methyl)quinoline-6-carboxamide 2,2,2-trifluoroacetate] | 128 nM
9 | O=C(N[C@@H](c1ccc(OC(F)(F)F)c(F)c1)c1ncccc1F)c1c[nH]c(=O)c(C(F)(F)F)c1 [Example 402, (S)-N-((3-fluoro-4-(trifluoromethoxy)phenyl)(3-fluoropyridin-2-yl)methyl)-6-oxo-5-(trifluoromethyl)-1,6-dihydropyridine-3-carboxamide] | 120 nM
10 | O=C(N[C@@H](c1ccc(OC(F)(F)F)c(F)c1)c1ncccc1F)c1ccc(O)cn1 [Example 389, (S)-N-((3-fluoro-4-(trifluoromethoxy)phenyl)(3-fluoropyridin-2-yl)methyl)-5-hydroxypicolinamide 2,2,2-trifluoroacetate] | 18.3 nM
11 | Cc1ccc([C@H](NC(=O)c2ccc(=O)n(C)c2)c2ncccc2F)cc1F [Example 335, (S)-N-((3-fluoro-4-methylphenyl)(3-fluoropyridin-2-yl)methyl)-1-methyl-6-oxo-1,6-dihydropyridine-3-carboxamide] | 209 nM
12 | O=C(N[C@@H](c1ccc(OC(F)(F)F)cc1)c1ncccc1F)c1ccc(-c2nc(=O)o[nH]2)cc1 [Example 316, (S)-N-((3-fluoropyridin-2-yl)(4-(trifluoromethoxy)phenyl)methyl)-4-(5-oxo-2,5-dihydro-1,2,4-oxadiazol-3-yl)benzamide] | 31.4 nM
13 | COc1ccc(C(=O)N[C@@H](c2ccc(C(F)(F)F)cc2)c2ncccc2F)cn1 [Example 46, (S)-N-((3-fluoropyridin-2-yl)(4-(trifluoromethyl)phenyl)methyl)-6-methoxynicotinamide] | 12.3 nM
14 | O=C(N[C@@H](c1ccc(C(F)(F)F)cc1)c1ncccc1C(F)(F)F)c1cncnc1 [Example 147, (S)-N-((4-(trifluoromethyl)phenyl)(3-(trifluoromethyl)pyridin-2-yl)methyl)pyrimidine-5-carboxamide] | 148 nM
15 | O=C(N[C@@H](c1ccc(C(F)(F)F)cc1)c1ncccc1C(F)(F)F)c1ccc(C(=O)O)c(Br)c1 [Example 100, (S)-2-bromo-4-(((4-(trifluoromethyl)phenyl)(3-(trifluoromethyl)pyridin-2-yl)methyl)carbamoyl)benzoic acid] | 61.5 nM
16 | O=C(N[C@@H](c1ccc(C(F)(F)F)cc1)c1ncccc1C(F)(F)F)c1ccc2cccnc2n1 [Example 128, (S)-N-((4-(trifluoromethyl)phenyl)(3-(trifluoromethyl)pyridin-2-yl)methyl)-1,8-naphthyridine-2-carboxamide 2,2,2-trifluoroacetate] | 125 nM
17 | O=C(N[C@@H](c1ccc(C(F)(F)F)cc1)c1ncccc1F)c1ccc2nccc(Cl)c2c1 [Example 113, (S)-4-chloro-N-((3-fluoropyridin-2-yl)(4-(trifluoromethyl)phenyl)methyl)quinoline-6-carboxamide 2,2,2-trifluoroacetate] | 31.1 nM

Row | SMILES | IC50
18 | Cn1ccc(C(=O)N[C@@H](c2ccc(C(F)(F)F)cc2)c2ncccc2C(F)(F)F)cc1=O [Example 49, (S)-1-methyl-2-oxo-N-((4-(trifluoromethyl)phenyl)(3-(trifluoromethyl)pyridin-2-yl)methyl)-1,2-dihydropyridine-4-carboxamide] | 127 nM
19 | O=C(N[C@@H](c1ccc(OC(F)(F)F)c(F)c1)c1ncccc1F)c1ccc(=O)n(C[C@@H](O)C(F)(F)F)c1 [Example 409, N-((S)-(3-fluoro-4-(trifluoromethoxy)phenyl)(3-fluoropyridin-2-yl)methyl)-6-oxo-1-((R)-3,3,3-trifluoro-2-hydroxypropyl)-1,6-dihydropyridine-3-carboxamide] | 89.2 nM
20 | COc1ncccc1C(=O)N[C@@H](c1ccc(C(F)(F)F)cc1)c1ncccc1C(F)(F)F [Example 29] | 32.4 nM
21 | CC#Cc1cccnc1[C@@H](NC(=O)c1ccc(OC)nc1)c1ccc(C(F)(F)F)cc1 [Example 96, (S)-6-methoxy-N-((3-(prop-1-yn-1-yl)pyridin-2-yl)(4-(trifluoromethyl)phenyl)methyl)nicotinamide] | 37.6 nM
22 | O=C(O)C1CCC(C(=O)N[C@@H](c2ccc(C(F)(F)F)cc2)c2ncccc2C(F)(F)F)CC1 (stereo partly drawn) [Example 244, (S)-4-(((4-(trifluoromethyl)phenyl)(3-(trifluoromethyl)pyridin-2-yl)methyl)carbamoyl)cyclohexanecarboxylic acid] | 3380 nM
23 | Cc1cc(C)n2nc(C(=O)N[C@@H](c3ccc(C(F)(F)F)cc3)c3ncccc3C(F)(F)F)cc2n1 [Example 149, (S)-5,7-dimethyl-N-((4-(trifluoromethyl)phenyl)(3-(trifluoromethyl)pyridin-2-yl)methyl)pyrazolo[1,5-a]pyrimidine-2-carboxamide] | 398 nM
24 | O=C(N[C@@H](c1cccc(F)c1)c1ncccc1C(F)(F)F)c1ccc2cccnc2c1 [Example 17, (S)-N-((3-fluorophenyl)(3-(trifluoromethyl)pyridin-2-yl)methyl)quinoline-7-carboxamide] | 230 nM
25 | O=C(N[C@@H](c1ccc(OC(F)(F)F)cc1)c1ncccc1F)c1ccc2[nH]c(=O)oc2c1 [Example 80, (S)-N-((3-fluoropyridin-2-yl)(4-(trifluoromethoxy)phenyl)methyl)-2-oxo-2,3-dihydrobenzo[d]oxazole-6-carboxamide] | 23.1 nM
26 | N#Cc1cccc(C(=O)N[C@@H](c2ccc(C(F)(F)F)cc2)c2ncccc2F)c1 [Example 184, (S)-3-cyano-N-((3-fluoropyridin-2-yl)(4-(trifluoromethyl)phenyl)methyl)benzamide] | 52.9 nM
27 | O=C(N[C@@H](c1ccc(C(F)(F)F)cc1)c1ncccc1F)c1ccc2nccc(O)c2c1 [Example 114, (S)-N-((3-fluoropyridin-2-yl)(4-(trifluoromethyl)phenyl)methyl)-4-hydroxyquinoline-6-carboxamide 2,2,2-trifluoroacetate] | 50.6 nM
28 | O=C(N[C@@H](c1ccc(C(F)(F)F)cc1)c1ncccc1C(F)(F)F)c1cn[nH]c1 [Example 143, (S)-N-((4-(trifluoromethyl)phenyl)(3-(trifluoromethyl)pyridin-2-yl)methyl)-1H-pyrazole-4-carboxamide] | 87.4 nM
29 | COCCC(=O)N[C@@H](c1ccc(C(F)(F)F)cc1)c1ncccc1C(F)(F)F [Example 224, (S)-3-methoxy-N-((4-(trifluoromethyl)phenyl)(3-(trifluoromethyl)pyridin-2-yl)methyl)propanamide] | 1400 nM
30 | Cc1cccnc1[C@@H](NC(=O)c1ccc2c(c1)OCC(=O)N2)c1ccc(C(F)(F)F)cc1 [Example 85, (S)-N-((3-methylpyridin-2-yl)(4-(trifluoromethyl)phenyl)methyl)-3-oxo-3,4-dihydro-2H-benzo[b][1,4]oxazine-7-carboxamide] | 28.9 nM
31 | O=C1Cc2cc(C(=O)N[C@@H](c3ccc(C(F)(F)F)cc3)c3ncccc3C(F)(F)F)ccc2N1 [Example 56, (S)-2-oxo-N-((4-(trifluoromethyl)phenyl)(3-(trifluoromethyl)pyridin-2-yl)methyl)indoline-5-carboxamide] | 9.2 nM
32 | COC(=O)c1ccc(C(=O)N[C@@H](c2ccc(OC(F)(F)F)c(F)c2)c2ncccc2F)nc1 [Example 398, (S)-methyl 6-(((3-fluoro-4-(trifluoromethoxy)phenyl)(3-fluoropyridin-2-yl)methyl)carbamoyl)nicotinate] | 189 nM
33 | CCn1cc(C(=O)N[C@@H](c2ccc(OC(F)(F)F)cc2)c2ncccc2F)ccc1=O [Example 255, (S)-1-ethyl-N-((3-fluoropyridin-2-yl)(4-(trifluoromethoxy)phenyl)methyl)-6-oxo-1,6-dihydropyridine-3-carboxamide] | 17.6 nM
